Test results taken from ChEMBL document CHEMBL1201862, “PubChem BioAssay data set” (2004).
Active and inactive are the calls of the source.

Assays:
[1] = molecular target: T1, Leucine aminopeptidase (Plasmodium falciparum 3D7, UniProt Q8IL11); assay: P. falciparum M17LAP inhibitors, primary screen, biochemical, fluorogenic H-Leu-NHMec substrate, 1536-well (AID 1619); assay type: functional
T1 sequence (Q8IL11 whole entry): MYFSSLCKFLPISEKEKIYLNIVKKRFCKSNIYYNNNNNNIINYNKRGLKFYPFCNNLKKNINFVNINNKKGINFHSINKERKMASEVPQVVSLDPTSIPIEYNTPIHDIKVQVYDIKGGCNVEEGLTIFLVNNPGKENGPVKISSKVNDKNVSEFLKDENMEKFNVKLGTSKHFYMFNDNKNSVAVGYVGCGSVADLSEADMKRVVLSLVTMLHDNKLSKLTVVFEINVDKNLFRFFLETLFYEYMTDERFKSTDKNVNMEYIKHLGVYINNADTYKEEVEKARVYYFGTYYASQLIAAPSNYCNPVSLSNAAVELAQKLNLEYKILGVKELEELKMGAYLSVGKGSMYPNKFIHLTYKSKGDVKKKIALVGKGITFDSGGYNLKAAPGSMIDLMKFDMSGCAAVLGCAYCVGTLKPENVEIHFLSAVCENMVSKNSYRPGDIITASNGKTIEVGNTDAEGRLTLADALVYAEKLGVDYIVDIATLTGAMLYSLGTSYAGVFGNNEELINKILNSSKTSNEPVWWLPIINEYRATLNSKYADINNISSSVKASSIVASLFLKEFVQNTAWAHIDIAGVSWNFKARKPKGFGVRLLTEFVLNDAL

[2] = system: HEK293; assay: cells; assay type: functional, cell-based; settings: Homo sapiens
[3] = system: HEK293; assay: NOD2 signaling inhibitors in MDP-stimulated cells, cell-based, uHTS, luminescence (AID 2001); assay type: functional; settings: Homo sapiens
[4] = system: HEK293; assay: cells; assay type: functional, cell-based; settings: Homo sapiens; remark: listed apart in the source
[5] = molecular target: Voltage-dependent T-type calcium channel subunit alpha-1H (Homo sapiens, UniProt O95180); assay type: functional;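 note: channel activity triggered by adding a high calcium stimulation buffer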
[6] = molecular target: Large T antigen (Simian virus 40, UniProt P03070); assay type: functional, Betapolyomavirus macacae;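 note: Confirmatory-stage PubChem screen for compounds that inhibit SV40 T antigen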
[7] = DRD fibroblast viability loss – cell-based, non-viral oncogenic, luminescence, dose response (AID 1934); assay type: functional; settings: Homo sapiens
[8] = system: BJ; assay: BJ-TERT fibroblast viability loss – cell-based, RAS-independent, luminescence, dose response (AID 1933); assay type: functional; settings: Homo sapiens
[9] = system: BJ; assay: BJ-TERT-LT-ST fibroblast viability loss – cell-based, RAS-independent, luminescence, dose response (AID 1935); assay type: functional; settings: Homo sapiens;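 note: BJ fibroblasts immortalized with TERT plus LT and ST oncogenes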
[10] = system: BJ; assay: cells; assay type: functional, cell-based; settings: Homo sapiens
[11] = molecular target: T2, Endoribonuclease toxin MazF (Escherichia coli K-12, UniProt P0AE70); assay: substrate-only fluorescence increase artefacts – biochemical, single-stranded RNase substrate, counter-screen for MazEF activator project, dose response (AID 588502); assay type: functional
T2 sequence (P0AE70 whole entry): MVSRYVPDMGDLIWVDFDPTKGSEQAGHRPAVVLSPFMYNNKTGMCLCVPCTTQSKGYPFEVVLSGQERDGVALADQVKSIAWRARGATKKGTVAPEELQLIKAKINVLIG

[12] = molecular target: T2, Endoribonuclease toxin MazF; assay: activation of MazEF endoribonuclease cleavage – biochemical, fluorescence, single-stranded RNA substrate, uHTS hits, dose response (AID 588481); assay type: functional
[13] = molecular target: T3, Corticotropin-releasing factor receptor 2/Corticotropin-releasing factor-binding protein (Homo sapiens, UniProt P24387+Q13324); assay: activators of CRF receptor 2 with binding protein – uHTS hits, confirmation (AID 602473); assay type: functional; settings: read-out: EC50_Mean
T3 sequence (Q13324 whole entry): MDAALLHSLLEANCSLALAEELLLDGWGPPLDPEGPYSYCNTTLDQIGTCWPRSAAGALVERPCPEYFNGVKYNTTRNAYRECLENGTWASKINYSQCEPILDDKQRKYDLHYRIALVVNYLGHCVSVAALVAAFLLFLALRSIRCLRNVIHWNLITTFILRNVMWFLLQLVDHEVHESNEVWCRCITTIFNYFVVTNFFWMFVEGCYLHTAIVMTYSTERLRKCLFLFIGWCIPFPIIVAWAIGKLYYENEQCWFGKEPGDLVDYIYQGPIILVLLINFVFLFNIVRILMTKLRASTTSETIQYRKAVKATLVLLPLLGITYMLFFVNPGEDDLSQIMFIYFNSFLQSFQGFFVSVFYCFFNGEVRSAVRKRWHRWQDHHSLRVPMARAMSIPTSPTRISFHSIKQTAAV
T3 sequence (P24387 whole entry): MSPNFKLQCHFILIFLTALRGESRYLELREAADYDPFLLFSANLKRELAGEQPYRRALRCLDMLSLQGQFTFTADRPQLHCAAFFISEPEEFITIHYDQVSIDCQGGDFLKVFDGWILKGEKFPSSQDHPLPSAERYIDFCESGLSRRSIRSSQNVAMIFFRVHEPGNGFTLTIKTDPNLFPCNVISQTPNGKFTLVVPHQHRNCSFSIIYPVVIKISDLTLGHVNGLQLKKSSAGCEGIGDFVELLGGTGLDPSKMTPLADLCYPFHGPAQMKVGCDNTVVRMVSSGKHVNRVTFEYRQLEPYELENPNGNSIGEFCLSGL

[14] = cells; assay type: functional, cell-based
[15] = cells; assay type: functional, cell-based; remark: listed apart in the source
[16] = system: INS1; assay: INS-1E survival protection against cytokine death – cell-based, luminescence, retest, dose response (AID 449756); assay type: functional; settings: Rattus norvegicus;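 note: cell death triggered by IL-1 beta plus TNF-alpha plus IFN-gamma mixture; protective hits raise ATP signal compared with cytokine alone wells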
[17] = NIH3T3 cell viability loss – ATP luminescence, mouse fibroblasts, counter-screen, dose response (AID 2010); assay type: functional, cell-based;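 note: cells exposed to compound for about 90 hours before reading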
[18] = cells
[19] = Trypanosoma cruzi growth suppression in host cells – NIH3T3 host cells, beta-gal luminescence, confirmation (AID 2044); assay type: functional, cell-based;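 note: intracellular parasites grown in NIH/3T3 mouse fibroblasts as host cells; luminescent beta-galactosidase reporter signal from transgenic T. cruzi replicating inside host cells; inhibitors lower the luminescence signal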
[20] = molecular target: T4, Microphthalmia-associated transcription factor (Homo sapiens, UniProt O75030); assay: reducers of TRPM1 reporter luminescence, concentration series – cell-based, SK-MEL-5, cherry-picked, set 3, MITF inhibitor project, dose response (AID 493073); assay type: functional;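 note: SK-MEL-5 melanoma cells with luciferase driven by the MITF target TRPM1 promoter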
T4 sequence (O75030 whole entry): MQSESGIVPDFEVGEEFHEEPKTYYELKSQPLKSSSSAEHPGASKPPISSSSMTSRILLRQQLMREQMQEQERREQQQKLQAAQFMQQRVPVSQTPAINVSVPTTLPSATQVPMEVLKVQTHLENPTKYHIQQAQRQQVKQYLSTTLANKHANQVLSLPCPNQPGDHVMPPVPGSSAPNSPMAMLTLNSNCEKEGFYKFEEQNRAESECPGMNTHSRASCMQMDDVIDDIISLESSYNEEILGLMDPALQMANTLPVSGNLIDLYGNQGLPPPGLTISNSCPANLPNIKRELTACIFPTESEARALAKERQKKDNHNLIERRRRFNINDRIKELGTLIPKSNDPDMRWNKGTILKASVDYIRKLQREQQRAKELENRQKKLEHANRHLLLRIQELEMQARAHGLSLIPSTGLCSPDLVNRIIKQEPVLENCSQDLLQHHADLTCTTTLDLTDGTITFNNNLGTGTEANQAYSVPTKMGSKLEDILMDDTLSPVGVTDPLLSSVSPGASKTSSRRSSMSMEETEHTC

[21] = molecular target: T5, Estrogen receptor (Homo sapiens, UniProt P03372);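 note: potency for inhibiting coactivator peptide recruitment to the receptor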
T5 sequence (P03372 whole entry): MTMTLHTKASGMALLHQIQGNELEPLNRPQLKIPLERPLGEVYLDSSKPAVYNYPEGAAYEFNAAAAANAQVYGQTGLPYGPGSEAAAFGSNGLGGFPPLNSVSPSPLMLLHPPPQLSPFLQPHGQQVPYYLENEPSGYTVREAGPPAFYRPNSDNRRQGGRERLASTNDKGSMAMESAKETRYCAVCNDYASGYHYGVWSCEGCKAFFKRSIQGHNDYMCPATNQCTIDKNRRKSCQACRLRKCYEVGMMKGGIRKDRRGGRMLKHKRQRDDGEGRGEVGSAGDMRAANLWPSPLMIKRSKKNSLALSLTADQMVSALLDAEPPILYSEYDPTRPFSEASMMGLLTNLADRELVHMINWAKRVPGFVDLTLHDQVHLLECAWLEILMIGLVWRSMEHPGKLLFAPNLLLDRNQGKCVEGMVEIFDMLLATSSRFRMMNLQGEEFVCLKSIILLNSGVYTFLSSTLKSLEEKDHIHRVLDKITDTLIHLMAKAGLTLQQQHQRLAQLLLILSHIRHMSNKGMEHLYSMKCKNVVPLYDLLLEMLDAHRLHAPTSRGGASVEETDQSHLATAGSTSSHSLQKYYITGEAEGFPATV

[22] = molecular target: Genome polyprotein (dengue virus type 2, UniProt P29990); assay: flavivirus cap methylation enzyme inhibition – biochemical, confirmation dose response, primary screen (AID 588689); assay type: functional
[23] = molecular target: T6, Cytochrome P450 1A2 (Homo sapiens, UniProt P05177);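 note: PubChem cytochrome P450 panel assay, CYP1A2 panel member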
T6 sequence (P05177 whole entry): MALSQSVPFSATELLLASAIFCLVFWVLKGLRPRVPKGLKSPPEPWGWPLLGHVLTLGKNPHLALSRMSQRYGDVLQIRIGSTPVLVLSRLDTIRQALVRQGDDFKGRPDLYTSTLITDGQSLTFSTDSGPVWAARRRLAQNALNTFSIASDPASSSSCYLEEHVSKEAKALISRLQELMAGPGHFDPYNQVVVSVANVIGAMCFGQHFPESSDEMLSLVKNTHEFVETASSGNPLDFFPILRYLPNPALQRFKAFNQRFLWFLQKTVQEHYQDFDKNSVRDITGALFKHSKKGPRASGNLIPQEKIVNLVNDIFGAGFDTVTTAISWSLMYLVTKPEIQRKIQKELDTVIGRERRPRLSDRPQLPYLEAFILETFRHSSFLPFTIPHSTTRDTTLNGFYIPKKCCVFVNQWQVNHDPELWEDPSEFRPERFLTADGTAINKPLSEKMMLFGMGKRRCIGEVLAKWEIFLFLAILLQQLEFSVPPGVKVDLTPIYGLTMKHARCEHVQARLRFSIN

Sequence of Voltage-dependent T-type calcium channel subunit alpha-1H (O95180 whole entry): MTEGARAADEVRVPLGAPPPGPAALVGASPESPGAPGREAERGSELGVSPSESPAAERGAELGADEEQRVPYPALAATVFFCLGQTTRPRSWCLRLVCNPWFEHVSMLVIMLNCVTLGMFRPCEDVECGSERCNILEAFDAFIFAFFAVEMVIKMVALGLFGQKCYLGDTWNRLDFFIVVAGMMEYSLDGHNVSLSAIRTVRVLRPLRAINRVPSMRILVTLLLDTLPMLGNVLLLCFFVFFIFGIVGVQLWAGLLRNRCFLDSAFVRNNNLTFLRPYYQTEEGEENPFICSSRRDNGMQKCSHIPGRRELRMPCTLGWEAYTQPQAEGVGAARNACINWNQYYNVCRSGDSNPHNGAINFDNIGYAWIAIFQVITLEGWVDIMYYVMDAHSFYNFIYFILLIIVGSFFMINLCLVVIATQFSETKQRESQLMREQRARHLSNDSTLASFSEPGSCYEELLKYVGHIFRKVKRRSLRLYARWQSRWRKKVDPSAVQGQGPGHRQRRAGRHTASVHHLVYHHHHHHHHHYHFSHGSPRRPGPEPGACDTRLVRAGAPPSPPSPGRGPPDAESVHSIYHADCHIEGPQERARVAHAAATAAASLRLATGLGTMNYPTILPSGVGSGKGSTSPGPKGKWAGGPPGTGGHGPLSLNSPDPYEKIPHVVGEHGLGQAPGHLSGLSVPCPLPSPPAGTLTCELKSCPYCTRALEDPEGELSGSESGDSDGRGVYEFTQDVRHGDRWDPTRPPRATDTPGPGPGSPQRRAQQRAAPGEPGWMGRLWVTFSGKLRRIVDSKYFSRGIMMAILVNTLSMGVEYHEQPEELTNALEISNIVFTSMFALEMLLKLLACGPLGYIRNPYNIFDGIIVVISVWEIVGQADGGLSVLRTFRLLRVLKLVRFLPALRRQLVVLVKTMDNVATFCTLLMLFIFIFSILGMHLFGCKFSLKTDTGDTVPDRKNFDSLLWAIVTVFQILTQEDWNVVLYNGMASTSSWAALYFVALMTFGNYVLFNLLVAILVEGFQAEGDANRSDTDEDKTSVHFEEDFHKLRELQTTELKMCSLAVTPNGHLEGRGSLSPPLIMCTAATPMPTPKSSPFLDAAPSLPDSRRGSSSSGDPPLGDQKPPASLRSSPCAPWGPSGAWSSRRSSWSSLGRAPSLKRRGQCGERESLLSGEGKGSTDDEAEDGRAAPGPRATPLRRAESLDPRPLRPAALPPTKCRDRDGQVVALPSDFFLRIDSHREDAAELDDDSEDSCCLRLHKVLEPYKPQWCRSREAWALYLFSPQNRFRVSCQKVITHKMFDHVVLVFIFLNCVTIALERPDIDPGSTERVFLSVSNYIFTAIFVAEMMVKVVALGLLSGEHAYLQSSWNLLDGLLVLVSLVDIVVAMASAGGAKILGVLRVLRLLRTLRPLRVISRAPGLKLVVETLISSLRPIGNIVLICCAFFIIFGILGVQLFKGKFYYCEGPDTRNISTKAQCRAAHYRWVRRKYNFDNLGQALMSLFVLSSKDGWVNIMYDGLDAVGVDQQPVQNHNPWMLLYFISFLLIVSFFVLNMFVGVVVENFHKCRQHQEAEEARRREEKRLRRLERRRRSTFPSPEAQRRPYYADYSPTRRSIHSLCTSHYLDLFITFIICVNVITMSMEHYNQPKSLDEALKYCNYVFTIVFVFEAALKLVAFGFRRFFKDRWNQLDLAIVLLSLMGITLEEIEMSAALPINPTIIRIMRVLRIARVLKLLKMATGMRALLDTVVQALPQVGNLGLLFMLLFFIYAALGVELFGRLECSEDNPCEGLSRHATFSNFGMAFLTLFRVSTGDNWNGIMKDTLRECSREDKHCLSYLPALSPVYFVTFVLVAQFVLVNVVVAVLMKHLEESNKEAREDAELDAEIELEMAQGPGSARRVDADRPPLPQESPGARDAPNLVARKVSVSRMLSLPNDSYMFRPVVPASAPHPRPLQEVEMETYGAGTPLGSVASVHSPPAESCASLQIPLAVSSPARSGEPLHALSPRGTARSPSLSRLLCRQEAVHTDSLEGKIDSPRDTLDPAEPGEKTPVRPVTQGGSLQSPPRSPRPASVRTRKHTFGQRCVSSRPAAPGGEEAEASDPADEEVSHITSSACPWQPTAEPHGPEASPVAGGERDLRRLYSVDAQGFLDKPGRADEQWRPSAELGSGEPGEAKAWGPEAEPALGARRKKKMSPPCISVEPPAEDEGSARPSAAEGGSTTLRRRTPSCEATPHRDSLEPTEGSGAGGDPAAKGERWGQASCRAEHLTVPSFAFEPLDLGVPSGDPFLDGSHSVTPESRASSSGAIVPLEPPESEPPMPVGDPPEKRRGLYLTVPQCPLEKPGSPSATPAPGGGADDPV
Sequence of Large T antigen (P03070 whole entry): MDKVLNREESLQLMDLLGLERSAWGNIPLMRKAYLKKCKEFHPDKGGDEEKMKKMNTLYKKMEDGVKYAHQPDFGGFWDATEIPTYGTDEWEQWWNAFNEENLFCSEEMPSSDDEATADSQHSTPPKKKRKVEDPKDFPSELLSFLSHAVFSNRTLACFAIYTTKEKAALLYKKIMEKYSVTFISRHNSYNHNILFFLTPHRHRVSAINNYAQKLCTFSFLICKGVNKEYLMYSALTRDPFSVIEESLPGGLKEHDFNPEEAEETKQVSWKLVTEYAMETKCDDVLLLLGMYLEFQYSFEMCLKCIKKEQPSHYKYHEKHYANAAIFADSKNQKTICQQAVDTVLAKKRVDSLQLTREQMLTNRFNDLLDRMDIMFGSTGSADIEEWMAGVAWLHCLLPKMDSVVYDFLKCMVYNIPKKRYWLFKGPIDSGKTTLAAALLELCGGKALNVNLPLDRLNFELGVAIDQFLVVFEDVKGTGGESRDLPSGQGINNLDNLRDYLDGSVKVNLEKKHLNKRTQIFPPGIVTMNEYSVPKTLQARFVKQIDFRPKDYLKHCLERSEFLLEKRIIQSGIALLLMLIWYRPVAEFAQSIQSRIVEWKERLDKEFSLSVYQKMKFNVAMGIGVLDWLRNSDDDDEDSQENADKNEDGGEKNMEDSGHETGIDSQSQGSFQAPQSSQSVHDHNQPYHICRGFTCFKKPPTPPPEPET
Sequence of Genome polyprotein (P29990 2492-3391 limits assumed): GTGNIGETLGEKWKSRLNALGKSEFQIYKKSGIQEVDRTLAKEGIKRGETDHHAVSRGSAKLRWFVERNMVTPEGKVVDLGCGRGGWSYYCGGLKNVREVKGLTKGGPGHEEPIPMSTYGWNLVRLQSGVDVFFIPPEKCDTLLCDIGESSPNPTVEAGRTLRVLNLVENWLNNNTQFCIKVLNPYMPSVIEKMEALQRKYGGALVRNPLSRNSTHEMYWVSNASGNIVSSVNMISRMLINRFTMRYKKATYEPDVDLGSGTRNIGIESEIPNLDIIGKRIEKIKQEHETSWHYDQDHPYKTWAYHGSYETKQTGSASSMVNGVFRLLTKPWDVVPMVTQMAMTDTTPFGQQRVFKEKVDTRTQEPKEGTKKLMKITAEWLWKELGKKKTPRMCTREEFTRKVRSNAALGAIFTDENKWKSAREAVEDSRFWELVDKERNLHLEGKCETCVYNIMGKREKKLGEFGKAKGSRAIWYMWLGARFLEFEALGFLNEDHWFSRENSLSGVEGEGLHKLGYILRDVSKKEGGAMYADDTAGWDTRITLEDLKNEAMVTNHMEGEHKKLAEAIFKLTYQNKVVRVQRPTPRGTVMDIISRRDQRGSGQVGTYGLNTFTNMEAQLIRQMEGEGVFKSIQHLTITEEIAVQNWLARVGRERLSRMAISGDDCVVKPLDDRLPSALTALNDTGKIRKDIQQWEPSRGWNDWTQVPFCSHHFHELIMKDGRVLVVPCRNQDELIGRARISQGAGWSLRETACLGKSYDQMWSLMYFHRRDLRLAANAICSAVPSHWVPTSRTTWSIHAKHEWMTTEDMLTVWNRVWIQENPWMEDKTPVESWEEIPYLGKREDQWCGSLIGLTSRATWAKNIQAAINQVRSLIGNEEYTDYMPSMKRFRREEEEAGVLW

N#Cc1c(O)nc(S)nc1-c1ccccc1
IC50 [1]: 15.7 µM (active)

COc1ccccc1N1CCN(C(=O)C2CCCN(S(=O)(=O)c3ccc4c(c3)oc(=O)n4C)C2)CC1 (stereo not given)
IC50 [2]: > 20 µM (inactive)
IC50 [3]: > 20 µM (inactive)
IC50 [4]: > 20 µM (inactive)

Cc1ccc2c(CC(=O)NCC3COc4ccccc4O3)coc2c1 (stereo not given)
EC50 [5]: 0.986 µM (active)

O=C(CCC(=O)N1CCN(c2ccc(O)cc2)CC1)c1cccs1
IC50 [6]: 5.54 µM (active)

CCCCN1C(=O)/C(=C/C=C/C=C/Nc2ccccc2)SC1=S
EC50 [7]: 19.8 µM (active)
EC50 [8]: 31.6 µM (active)
EC50 [9]: > 150 µM (not active)
EC50 [10]: 24.6 µM (active)

O=C(CCS(=O)(=O)c1ccc(Br)cc1)N1CCN(c2ccccc2Cl)CC1
EC50 [5]: 4.8 µM (active)

COc1ccc(Br)c(C(=O)OCc2cc(=O)oc3cc(C)ccc23)c1
EC50 [11]: > 99 µM (inactive)
EC50 [12]: > 99 µM (inactive)

COC(=O)CSc1cc([N+](=O)[O-])cc2c1c(C1OCCO1)nn2-c1ccccc1
EC50 [11]: > 99 µM (inactive)
EC50 [12]: > 99 µM (inactive)

Nc1c(C(=O)Nc2nccs2)sc2nc(-c3cccs3)cc(C(F)(F)F)c12
EC50 [11]: > 99 µM (inactive)
EC50 [12]: > 99 µM (inactive)
EC50 [13]: 2.76 µM (active)

CN1CCN(c2ccc([N+](=O)[O-])cc2C(=O)c2ccccc2)CC1
EC50 [7]: > 150 µM (not active)
EC50 [8]: 39.6 µM (active)
EC50 [9]: > 150 µM (not active)
EC50 [10]: > 150 µM (not active)

O=C(COc1ccccc1)N(Cc1cccc(F)c1)C1CCS(=O)(=O)C1 (stereo not given)
EC50 [14]: > 350 µM (not active)
EC50 [15]: > 350 µM (not active)

CC1CCC2(CC1)NC(=O)N(CC(=O)Nc1ccc(N3CCOCC3)cc1)C2=O (stereo not given)
IC50 [1]: 58.6 µM (active)

Cc1ccc(-c2c[n+](Cc3ccc(Cl)cc3)c3n2CCC3)cc1
AC50 [16]: 5.16 µM (active)
EC50 [17]: > 30 µM (not active)
EC50 [18]: 0.027 µM (active)
EC50 [19]: < 0.1 µM (active)
AC50 [20]: 14.2 µM (active)

CCOCC(=O)Nc1cccc(C(=O)OCC)c1
IC50 [21]: > 50 µM (not active)

ON=CNc1cccc2nonc12
EC50 [14]: 98.8 µM (active)
EC50 [15]: > 350 µM (not active)

Cc1ccc(NC2SC(=O)N(Cc3cccc(C(=O)O)c3)C2=O)cc1 (stereo not given)
IC50 [1]: 6.86 µM (active)

O=C(/C=C/c1ccc2c(c1)OCO2)Nc1cccnc1
EC50 [14]: 6.64 µM (active)
EC50 [15]: > 350 µM (not active)

O=C(Nc1ccc2nn(-c3ccccc3)nc2c1)c1ccc2c(c1)OCO2
IC50 [21]: 6.3 µM (active)

Cc1nonc1NC(=O)CSc1nnc(-c2ccoc2C)n1-c1cccc(Cl)c1
EC50 [5]: 7.83 µM (active)

CN(C)c1ccc(NC(=O)CSc2nnc(-c3ccco3)c(-c3ccco3)n2)cc1
IC50 [6]: 6.98 µM (active)

CC1=C(C)CC(C(=O)NNC(=O)c2csc3c2CCC(C(C)(C)C)C3)C(C(=O)O)C1 (stereo not given)
IC50 [1]: 8.98 µM (active)

NC(=O)COc1ccc(/C=C2\C(=O)ON=C2c2ccccc2)cc1
IC50 [22]: 67.7 µM (active)

Cc1ccccc1-c1nc(CS(=O)(=O)CC(=O)N(C)C2CCCCC2)c(C)o1
EC50 [5]: 1.26 µM (active)

COc1ccc(CSCC(=O)Nc2ccc(S(=O)(=O)N3CCCCCC3)cc2)cc1
EC50 [14]: > 350 µM (not active)
EC50 [15]: > 350 µM (not active)

O=C(CSCC(=O)N1CCCCC1)Nc1nc(-c2cccs2)cs1
EC50 [5]: 0.595 µM (active)

Cc1cc(C)n2nc(C(=O)N/N=C/c3ccc(O)cc3)nc2n1
IC50 [6]: 43.9 µM (active)

CCCn1/c(=N/C(=O)c2c(-c3c(F)cccc3Cl)noc2C)c(C(=O)OCC)cc2c(=O)n3ccccc3nc21
EC50 [14]: > 350 µM (not active)
EC50 [15]: > 350 µM (not active)

O=C(O)c1nn(Cc2ccc(Cl)cc2Cl)c2ccccc12 [LONIDAMINE]
AC50 [23]: 39.8 µM (inconclusive)
IC50 [1]: 7.37 µM (active)
